According to article PMC6886798, “Expression of myeloid Src-family kinases is associated with poor prognosis in AML and influences Flt3-ITD kinase inhibitor acquired resistance” (PLoS ONE, 2019):

Assays:
Test in all cases: KINOMEscan
Type in all cases: binding
Details in all cases: 1.0 µM
DAPK1 = target: T1, DAPK1 (Homo sapiens, UniProt P53355)
T1 construct: purchased Eurofins/DiscoverX KINOMEscan scanMAX
Description: (§1) Kinase retention to the immobilized ligand is then measured using quantitative real-time PCR for each kinase-specific DNA barcode.

ROS1 = target: T2, ROS1 (Homo sapiens, UniProt P08922)
T2 construct: purchased Eurofins/DiscoverX KINOMEscan scanMAX
Description: as §1

EPHB2 = target: T3, EPHB2 (Homo sapiens, UniProt P29323)
T3 construct: purchased Eurofins/DiscoverX KINOMEscan scanMAX
Description: as §1

AAK1 = target: T4, AAK1 (Homo sapiens, UniProt Q2M2I8)
T4 construct: purchased Eurofins/DiscoverX KINOMEscan scanMAX
T4 sequence (Q2M2I8 whole entry): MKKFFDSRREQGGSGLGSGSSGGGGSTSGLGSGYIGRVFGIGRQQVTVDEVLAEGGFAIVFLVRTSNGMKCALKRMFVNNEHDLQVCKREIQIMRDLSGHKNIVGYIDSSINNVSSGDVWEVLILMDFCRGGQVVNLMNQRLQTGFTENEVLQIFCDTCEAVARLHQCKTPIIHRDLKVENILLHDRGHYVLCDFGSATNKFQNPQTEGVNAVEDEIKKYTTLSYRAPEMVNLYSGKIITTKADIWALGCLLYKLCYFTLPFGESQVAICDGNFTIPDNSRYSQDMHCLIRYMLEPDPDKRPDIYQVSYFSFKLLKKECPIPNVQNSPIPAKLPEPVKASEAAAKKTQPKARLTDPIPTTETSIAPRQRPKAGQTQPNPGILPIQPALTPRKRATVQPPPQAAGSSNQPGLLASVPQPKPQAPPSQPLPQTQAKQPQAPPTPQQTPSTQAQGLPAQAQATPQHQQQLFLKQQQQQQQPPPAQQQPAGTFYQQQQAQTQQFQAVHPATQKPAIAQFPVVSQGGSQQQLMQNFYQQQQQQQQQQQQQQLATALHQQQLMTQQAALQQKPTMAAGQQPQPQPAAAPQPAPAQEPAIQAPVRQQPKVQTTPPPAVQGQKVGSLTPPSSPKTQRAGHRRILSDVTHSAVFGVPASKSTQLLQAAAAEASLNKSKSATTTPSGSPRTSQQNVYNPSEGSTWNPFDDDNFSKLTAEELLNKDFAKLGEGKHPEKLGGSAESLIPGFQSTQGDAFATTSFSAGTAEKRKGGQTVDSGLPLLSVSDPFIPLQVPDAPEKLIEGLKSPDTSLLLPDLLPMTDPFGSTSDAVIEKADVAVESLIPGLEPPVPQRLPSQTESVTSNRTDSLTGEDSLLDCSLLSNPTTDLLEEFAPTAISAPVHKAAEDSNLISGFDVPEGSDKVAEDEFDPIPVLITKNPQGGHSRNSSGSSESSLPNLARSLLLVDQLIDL
Description: as §1

TRKA = target: T5, TRKA (Homo sapiens, UniProt P04629)
T5 construct: purchased Eurofins/DiscoverX KINOMEscan scanMAX
Description: as §1

HPK1 = target: T6, HPK1 (Homo sapiens, UniProt Q92918)
T6 construct: purchased Eurofins/DiscoverX KINOMEscan scanMAX
T6 sequence (Q92918 whole entry): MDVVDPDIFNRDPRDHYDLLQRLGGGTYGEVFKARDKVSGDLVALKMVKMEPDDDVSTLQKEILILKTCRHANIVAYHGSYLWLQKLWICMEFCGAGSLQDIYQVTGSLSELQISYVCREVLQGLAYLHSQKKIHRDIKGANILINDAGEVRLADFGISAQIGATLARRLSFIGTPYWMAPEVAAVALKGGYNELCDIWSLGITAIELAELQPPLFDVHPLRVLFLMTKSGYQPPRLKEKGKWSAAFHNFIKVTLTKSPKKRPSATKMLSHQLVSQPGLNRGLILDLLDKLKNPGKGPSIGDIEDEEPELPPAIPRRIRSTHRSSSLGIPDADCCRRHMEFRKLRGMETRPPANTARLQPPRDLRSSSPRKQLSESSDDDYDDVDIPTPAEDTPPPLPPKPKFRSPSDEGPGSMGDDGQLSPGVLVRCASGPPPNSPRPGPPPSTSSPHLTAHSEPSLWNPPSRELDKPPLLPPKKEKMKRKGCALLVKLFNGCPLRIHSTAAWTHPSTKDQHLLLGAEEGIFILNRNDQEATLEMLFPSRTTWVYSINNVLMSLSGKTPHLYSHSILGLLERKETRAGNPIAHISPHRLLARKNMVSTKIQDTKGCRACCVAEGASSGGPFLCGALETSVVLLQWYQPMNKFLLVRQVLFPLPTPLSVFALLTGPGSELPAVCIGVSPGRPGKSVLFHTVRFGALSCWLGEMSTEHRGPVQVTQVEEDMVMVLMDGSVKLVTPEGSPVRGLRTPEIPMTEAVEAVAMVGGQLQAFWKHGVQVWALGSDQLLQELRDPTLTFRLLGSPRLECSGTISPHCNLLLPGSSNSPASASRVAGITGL
Description: as §1

[1] = target: T7, RSK1(Kin.Dom.1-N-terminal) (Homo sapiens, UniProt Q15418)
T7 construct: RSK1(Kin.Dom.1-N-terminal); purchased Eurofins/DiscoverX KINOMEscan scanMAX
T7 sequence (Q15418 62-391 limits assumed): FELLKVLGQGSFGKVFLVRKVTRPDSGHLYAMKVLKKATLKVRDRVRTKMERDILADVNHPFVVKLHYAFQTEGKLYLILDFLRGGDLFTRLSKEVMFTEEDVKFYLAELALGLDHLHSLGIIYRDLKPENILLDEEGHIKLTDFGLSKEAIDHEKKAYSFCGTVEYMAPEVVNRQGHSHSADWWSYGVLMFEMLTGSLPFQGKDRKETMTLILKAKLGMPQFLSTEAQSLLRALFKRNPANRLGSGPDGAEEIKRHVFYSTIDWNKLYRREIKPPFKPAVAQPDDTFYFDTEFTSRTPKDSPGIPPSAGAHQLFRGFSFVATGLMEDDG
Description: as §1

CDK7 = target: T8, CDK7 (Homo sapiens, UniProt P50613)
T8 construct: purchased Eurofins/DiscoverX KINOMEscan scanMAX
T8 sequence (P50613 whole entry): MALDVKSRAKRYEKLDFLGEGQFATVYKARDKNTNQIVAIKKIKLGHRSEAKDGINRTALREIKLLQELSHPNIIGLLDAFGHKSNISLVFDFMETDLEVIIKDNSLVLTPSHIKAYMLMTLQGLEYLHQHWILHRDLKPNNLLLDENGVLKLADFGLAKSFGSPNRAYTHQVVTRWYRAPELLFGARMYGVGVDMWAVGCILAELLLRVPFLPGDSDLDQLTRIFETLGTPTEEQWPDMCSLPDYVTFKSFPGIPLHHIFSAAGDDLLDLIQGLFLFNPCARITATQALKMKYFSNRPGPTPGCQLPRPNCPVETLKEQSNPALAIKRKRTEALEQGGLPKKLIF
Description: as §1

EPHB3 = target: T9, EPHB3 (Homo sapiens, UniProt P54753)
T9 construct: purchased Eurofins/DiscoverX KINOMEscan scanMAX
Description: as §1

DCAMKL1 = target: T10, DCAMKL1 (Homo sapiens, UniProt O15075)
T10 construct: purchased Eurofins/DiscoverX KINOMEscan scanMAX
T10 sequence (O15075 whole entry): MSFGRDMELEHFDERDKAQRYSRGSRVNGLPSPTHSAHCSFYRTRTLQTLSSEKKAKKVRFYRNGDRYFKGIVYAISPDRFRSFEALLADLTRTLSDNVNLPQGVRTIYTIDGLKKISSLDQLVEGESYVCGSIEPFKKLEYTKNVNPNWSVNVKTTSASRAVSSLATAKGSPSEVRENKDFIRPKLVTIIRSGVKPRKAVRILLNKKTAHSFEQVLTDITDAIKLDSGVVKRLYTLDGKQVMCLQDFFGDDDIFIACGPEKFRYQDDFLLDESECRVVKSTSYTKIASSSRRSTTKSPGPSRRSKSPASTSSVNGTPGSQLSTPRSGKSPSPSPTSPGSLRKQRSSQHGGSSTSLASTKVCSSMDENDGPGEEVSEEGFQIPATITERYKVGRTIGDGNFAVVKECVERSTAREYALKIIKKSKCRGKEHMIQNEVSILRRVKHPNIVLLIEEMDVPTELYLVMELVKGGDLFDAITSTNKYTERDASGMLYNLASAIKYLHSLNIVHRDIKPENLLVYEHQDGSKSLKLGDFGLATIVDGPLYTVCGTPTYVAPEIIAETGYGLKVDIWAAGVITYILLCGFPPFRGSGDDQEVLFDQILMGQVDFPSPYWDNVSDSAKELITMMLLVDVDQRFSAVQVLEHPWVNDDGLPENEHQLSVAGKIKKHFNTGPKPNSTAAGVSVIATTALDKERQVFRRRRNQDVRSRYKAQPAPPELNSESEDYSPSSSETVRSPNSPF
Description: as §1

KIT(D816V) = target: T11, KIT(D816V) (Homo sapiens, UniProt P10721, D816V)
T11 construct: purchased Eurofins/DiscoverX KINOMEscan scanMAX
Description: as §1

CSNK1G1 = target: T12, CSNK1G1 (Homo sapiens, UniProt Q9HCP0)
T12 construct: purchased Eurofins/DiscoverX KINOMEscan scanMAX
Description: as §1

FLT3(D835Y) = target: T13, FLT3(D835Y) (Homo sapiens, UniProt P36888, D835Y)
T13 construct: purchased Eurofins/DiscoverX KINOMEscan scanMAX
Description: as §1

SgK110 = target: T14, SgK110 (Homo sapiens, UniProt P0C264)
T14 construct: purchased Eurofins/DiscoverX KINOMEscan scanMAX
Description: as §1

RET(M918T) = target: T15, RET(M918T) (Homo sapiens, UniProt P07949, M918T)
T15 construct: purchased Eurofins/DiscoverX KINOMEscan scanMAX
Description: as §1

BLK = target: T16, BLK (Homo sapiens, UniProt P51451)
T16 construct: purchased Eurofins/DiscoverX KINOMEscan scanMAX
Description: as §1

EPHA1 = target: T17, EPHA1 (Homo sapiens, UniProt P21709)
T17 construct: purchased Eurofins/DiscoverX KINOMEscan scanMAX
Description: as §1

PLK3 = target: T18, PLK3 (Homo sapiens, UniProt Q9H4B4)
T18 construct: purchased Eurofins/DiscoverX KINOMEscan scanMAX
Description: as §1

YSK1 = target: T19, YSK1 (Homo sapiens, UniProt O00506)
T19 construct: purchased Eurofins/DiscoverX (KINOMEscan scanMAX service)
Description: as §1

MAP4K5 = target: T20, MAP4K5 (Homo sapiens, UniProt Q9Y4K4)
T20 construct: purchased Eurofins/DiscoverX KINOMEscan scanMAX
Description: as §1

LATS2 = target: T21, LATS2 (Homo sapiens, UniProt Q9NRM7)
T21 construct: purchased Eurofins/DiscoverX KINOMEscan scanMAX
Description: as §1

TYRO3 = target: T22, TYRO3 (Homo sapiens, UniProt Q06418)
T22 construct: DNA tag (qPCR barcode); purchased Eurofins/DiscoverX KINOMEscan scanMAX
Description: as §1

ACVR1B = target: T23, ACVR1B (Homo sapiens, UniProt P36896)
T23 construct: purchased Eurofins/DiscoverX KINOMEscan scanMAX
Description: as §1

BRAF = target: T24, BRAF (Homo sapiens, UniProt P15056)
T24 construct: purchased Eurofins/DiscoverX KINOMEscan scanMAX
Description: as §1

SRMS = target: T25, SRMS (Homo sapiens, UniProt Q9H3Y6)
T25 construct: purchased Eurofins/DiscoverX KINOMEscan scanMAX
Description: as §1

CDK4-cyclinD3 = target: T26, CDK4-cyclinD3 (Homo sapiens, UniProt P11802)
T26 construct: purchased Eurofins/DiscoverX KINOMEscan scanMAX
Description: as §1

PYK2 = target: T27, PYK2 (Homo sapiens, UniProt Q14289)
T27 construct: purchased Eurofins/DiscoverX KINOMEscan scanMAX
Description: as §1

ERK3 = target: T28, ERK3 (Homo sapiens, UniProt Q16659)
T28 construct: purchased Eurofins/DiscoverX KINOMEscan scanMAX
Description: as §1

IKK-beta = target: T29, IKK-beta (Homo sapiens, UniProt O14920)
T29 construct: purchased Eurofins/DiscoverX KINOMEscan scanMAX
Description: as §1

MAP4K3 = target: T30, MAP4K3 (Homo sapiens, UniProt Q8IVH8)
T30 construct: purchased Eurofins/DiscoverX KINOMEscan scanMAX
Description: as §1

MEK5 = target: T31, MEK5 (Homo sapiens, UniProt Q13163)
T31 construct: purchased Eurofins/DiscoverX KINOMEscan scanMAX
Description: as §1

PIK3CA(H1047Y) = target: T32, PIK3CA(H1047Y) (Homo sapiens, UniProt P42336, H1047Y)
T32 construct: purchased Eurofins/DiscoverX KINOMEscan scanMAX
Description: as §1

TNK2 = target: T33, TNK2 (Homo sapiens, UniProt Q07912)
T33 construct: purchased Eurofins/DiscoverX KINOMEscan scanMAX
Description: as §1

MAP4K2 = target: T34, MAP4K2 (Homo sapiens, UniProt Q12851)
T34 construct: purchased Eurofins/DiscoverX KINOMEscan scanMAX
Description: as §1

PIM3 = target: T35, PIM3 (Homo sapiens, UniProt Q86V86)
T35 construct: purchased Eurofins/DiscoverX KINOMEscan scanMAX
Description: as §1

ABL1-nonphosphorylated = target: T36, ABL1-nonphosphorylated (Homo sapiens, UniProt P00519)
T36 construct: purchased Eurofins/DiscoverX KINOMEscan scanMAX
Description: as §1

MARK2 = target: T37, MARK2 (Homo sapiens, UniProt Q7KZI7)
T37 construct: purchased Eurofins/DiscoverX KINOMEscan scanMAX
Description: as §1

FLT1 = target: T38, FLT1 (Homo sapiens, UniProt P17948)
T38 construct: purchased Eurofins/DiscoverX KINOMEscan scanMAX
Description: as §1

AURKB = target: T39, AURKB (Homo sapiens, UniProt Q96GD4)
T39 construct: purchased Eurofins/DiscoverX KINOMEscan scanMAX
T39 sequence (Q96GD4 whole entry): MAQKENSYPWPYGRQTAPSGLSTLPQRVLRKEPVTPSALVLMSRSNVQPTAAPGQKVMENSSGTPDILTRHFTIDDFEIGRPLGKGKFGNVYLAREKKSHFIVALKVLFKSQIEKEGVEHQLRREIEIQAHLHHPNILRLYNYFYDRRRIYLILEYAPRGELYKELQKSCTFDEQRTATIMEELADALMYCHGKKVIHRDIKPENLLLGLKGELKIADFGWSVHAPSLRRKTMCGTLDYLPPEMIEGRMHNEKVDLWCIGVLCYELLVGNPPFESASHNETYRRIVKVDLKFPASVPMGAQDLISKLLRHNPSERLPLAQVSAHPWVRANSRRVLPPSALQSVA
Description: as §1

CSF1R = target: T40, CSF1R (Homo sapiens, UniProt P07333)
T40 construct: purchased Eurofins/DiscoverX KINOMEscan scanMAX
Description: as §1

PLK4 = target: T41, PLK4 (Homo sapiens, UniProt O00444)
T41 construct: purchased Eurofins/DiscoverX KINOMEscan scanMAX
Description: as §1

MKNK2 = target: T42, MKNK2 (Homo sapiens, UniProt Q9HBH9)
T42 construct: purchased Eurofins/DiscoverX KINOMEscan scanMAX
Description: as §1

T1 sequence (P53355 whole entry): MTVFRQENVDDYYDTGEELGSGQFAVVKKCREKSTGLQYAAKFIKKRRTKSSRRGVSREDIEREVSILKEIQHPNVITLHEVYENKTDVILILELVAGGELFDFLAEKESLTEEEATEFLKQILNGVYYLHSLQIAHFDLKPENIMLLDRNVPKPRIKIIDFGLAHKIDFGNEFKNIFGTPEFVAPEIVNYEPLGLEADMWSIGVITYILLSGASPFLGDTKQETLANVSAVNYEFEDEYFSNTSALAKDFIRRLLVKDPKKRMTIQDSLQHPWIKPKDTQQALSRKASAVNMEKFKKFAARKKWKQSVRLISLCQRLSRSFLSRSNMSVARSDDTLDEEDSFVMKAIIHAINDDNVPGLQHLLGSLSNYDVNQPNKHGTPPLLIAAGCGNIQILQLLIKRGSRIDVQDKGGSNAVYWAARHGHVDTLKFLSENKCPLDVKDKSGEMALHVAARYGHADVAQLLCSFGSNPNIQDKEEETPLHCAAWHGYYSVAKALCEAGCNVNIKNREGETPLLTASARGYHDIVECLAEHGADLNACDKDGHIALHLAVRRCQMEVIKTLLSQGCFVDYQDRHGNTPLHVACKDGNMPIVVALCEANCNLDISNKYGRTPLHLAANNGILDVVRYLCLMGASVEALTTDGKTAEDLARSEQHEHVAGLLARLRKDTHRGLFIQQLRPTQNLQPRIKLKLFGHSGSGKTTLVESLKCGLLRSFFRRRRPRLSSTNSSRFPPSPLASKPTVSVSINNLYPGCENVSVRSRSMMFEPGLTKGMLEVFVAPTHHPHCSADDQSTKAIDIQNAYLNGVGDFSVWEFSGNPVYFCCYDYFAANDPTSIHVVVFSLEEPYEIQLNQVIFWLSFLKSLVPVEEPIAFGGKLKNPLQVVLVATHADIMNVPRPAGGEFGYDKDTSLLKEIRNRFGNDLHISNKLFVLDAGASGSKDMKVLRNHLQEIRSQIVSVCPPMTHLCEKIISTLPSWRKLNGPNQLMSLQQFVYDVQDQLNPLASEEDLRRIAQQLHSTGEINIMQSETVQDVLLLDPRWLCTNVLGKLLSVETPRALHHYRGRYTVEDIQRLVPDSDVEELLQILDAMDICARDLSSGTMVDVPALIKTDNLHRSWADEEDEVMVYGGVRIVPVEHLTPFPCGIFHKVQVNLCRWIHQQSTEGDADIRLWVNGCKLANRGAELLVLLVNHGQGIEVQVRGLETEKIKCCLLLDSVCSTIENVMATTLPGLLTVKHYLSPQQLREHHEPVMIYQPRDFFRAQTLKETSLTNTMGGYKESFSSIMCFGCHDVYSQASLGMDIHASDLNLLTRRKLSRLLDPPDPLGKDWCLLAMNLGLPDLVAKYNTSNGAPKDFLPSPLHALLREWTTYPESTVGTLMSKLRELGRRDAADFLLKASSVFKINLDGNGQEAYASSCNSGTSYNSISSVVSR

CN1CCN(C2CCC(n3cc(-c4ccc(Oc5ccccc5)cc4)c4c(N)ncnc43)CC2)CC1 (stereo not drawn) [A-419259]
% Control (DAPK1): 99%
% Control (ROS1): 100%
% Control (EPHB2): 100%
% Control (AAK1): 100%
% Control (TRKA): 16%
% Control (HPK1): 44%
% Control [1]: 8.4%
% Control (CDK7): 28%
% Control (EPHB3): 100%
% Control (DCAMKL1): 43%
% Control (KIT(D816V)): 70%
% Control (CSNK1G1): 80%
% Control (FLT3(D835Y)): 7.6%
% Control (SgK110): 100%
% Control (RET(M918T)): 0.1%
% Control (BLK): 0.05%
% Control (EPHA1): 58%
% Control (PLK3): 72%
% Control (YSK1): 84%
% Control (MAP4K5): 9.2%
% Control (LATS2): 18%
% Control (TYRO3): 66%
% Control (ACVR1B): 100%
% Control (BRAF): 66%
% Control (SRMS): 0%
% Control (CDK4-cyclinD3): 81%
% Control (PYK2): 88%
% Control (ERK3): 100%
% Control (IKK-beta): 90%
% Control (MAP4K3): 32%
% Control (MEK5): 0.25%
% Control (PIK3CA(H1047Y)): 99%
% Control (TNK2): 1.1%
% Control (MAP4K2): 98%
% Control (PIM3): 100%
% Control (ABL1-nonphosphorylated): 0.1%
% Control (MARK2): 82%
% Control (FLT1): 29%
% Control (AURKB): 100%
% Control (CSF1R): 5.8%
% Control (PLK4): 100%
% Control (MKNK2): 8.3%
